Assay results published in patent US20080009418A1, “Selective Inhibitors” (Alchemia LTD., priority 2004, published 2008).

Experiments:
[1] = biological target: T1, Human melanin-concentrating hormone (MCH1) (Homo sapiens, UniProt Q99705); experiment: Radioligand binding, human melanin-concentrating hormone MCH1 membranes, FlashPlate, [125I]-S36057; details: compound at 10 μM; for A6: inhibition of radioligand binding: [125I]-S36057, human MCH1 membranes
T1 construct: purchased Perkin Elmer Biosignal
Procedure, shortened: (§1)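 Cloned human receptor membranes were coated onto FlashPlate wells and incubated with radioligand and compound (added from a 0.5 mM DMSO daughter plate) for 1 hour at room temperature in the dark. Scintillation counting gave percent inhibition, with DMSO defining total and reference ligand defining non-specific binding.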

Human Melanocortin (MC3) = biological target: T2, Human Melanocortin (MC3) (Homo sapiens, UniProt P41968); experiment: Radioligand binding, human melanocortin MC3 membranes, FlashPlate, [125I]-NDP-αMSH; details: compound at 10 μM, [125I]-NDP-αMSH; for A3: inhibition of radioligand binding: human MC3 membranes
T2 construct: purchased Perkin Elmer Biosignal
Procedure, shortened: as §1

Human Melanocortin (MC4) = biological target: T3, Human Melanocortin (MC4) (Homo sapiens, UniProt P32245); experiment: Radioligand binding, human melanocortin MC4 membranes, FlashPlate, [125I]-NDP-αMSH; details: compound at 10 μM, [125I]-NDP-αMSH; for A4: inhibition of radioligand binding: human MC4 membranes
T3 construct: purchased Perkin Elmer Biosignal
Procedure, shortened: as §1

Human opioid (ORL1) = biological target: T4, Human opioid (ORL1) (Homo sapiens, UniProt P41146); experiment: Radioligand binding, human opioid ORL1 membranes, FlashPlate, [125I]-Nociceptin; details: compound at 10 μM, [125I]-Nociceptin; for A10: inhibition of radioligand binding: human ORL1 membranes
T4 construct: purchased Perkin Elmer Biosignal
Procedure, shortened: as §1

Human κ-Opioid (KOP) = biological target: T5, Human κ-Opioid (KOP) (Homo sapiens, UniProt P41145); experiment: Radioligand binding, human κ-opioid (KOP) membranes, filtration, [3H]-Diprenorphine; details: compound at 10 μM, [3H]-Diprenorphine; for A2: inhibition of radioligand binding: human KOP membranes
T5 construct: purchased Perkin Elmer Biosignal
Procedure, shortened: (§2)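 Membranes from cloned human receptors were incubated with compound and radioligand for 1 hour at room temperature. Bound ligand was collected on 0.3% PEI-soaked filters, washed with cold 50 mM Tris-HCl pH 7.4, and counted by scintillation. Percent inhibition was computed against DMSO totals and reference-ligand nonspecific wells.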

Human melanocortin (MC5) = biological target: T6, Human melanocortin (MC5) (Homo sapiens, UniProt P33032); experiment: Radioligand binding, human melanocortin MC5 membranes, FlashPlate, [125I]-NDP-αMSH; details: compound at 10 μM, [125I]-NDP-αMSH; for A5: inhibition of radioligand binding: human MC5 membranes
T6 construct: purchased Perkin Elmer Biosignal
Procedure, shortened: as §1

Human neurokinin (NK1) = biological target: T7, Human neurokinin (NK1) (Homo sapiens, UniProt P25103); experiment: Radioligand binding, human neurokinin NK1 membranes, filtration, [125I]-Substance P; details: compound at 10 μM, [125I]-Substance P; for A8: inhibition of radioligand binding: human NK1 membranes
T7 construct: purchased Perkin Elmer Biosignal
Procedure, shortened: as §2

[2] = biological target: T8, Human neuropeptide Y (NPY-Y1) (Homo sapiens, UniProt P25929); experiment: Radioligand binding, human neuropeptide Y NPY-Y1 membranes, FlashPlate, [125I]-PYY; details: compound at 10 μM, [125I]-PYY; for A9: inhibition of radioligand binding: human NPY-Y1 membranes
T8 construct: purchased Perkin Elmer Biosignal
T8 sequence (P25929 1-384): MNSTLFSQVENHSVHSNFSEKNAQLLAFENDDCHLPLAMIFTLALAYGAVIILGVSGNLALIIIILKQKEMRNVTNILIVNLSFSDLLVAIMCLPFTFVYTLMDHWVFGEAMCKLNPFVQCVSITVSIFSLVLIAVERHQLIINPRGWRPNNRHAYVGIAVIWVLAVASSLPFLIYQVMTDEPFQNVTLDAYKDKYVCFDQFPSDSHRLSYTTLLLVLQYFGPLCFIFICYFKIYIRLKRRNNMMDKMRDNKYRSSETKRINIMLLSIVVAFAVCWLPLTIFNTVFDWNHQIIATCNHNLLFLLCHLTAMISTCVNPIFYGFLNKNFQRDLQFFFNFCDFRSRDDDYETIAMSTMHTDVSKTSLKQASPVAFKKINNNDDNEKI
Procedure, shortened: as §1

Mouse urotensin (mUR2) = biological target: T9, Mouse urotensin (mUR2) (Mus musculus, UniProt Q8VIH9); experiment: Radioligand binding, mouse urotensin mUR2 membranes, FlashPlate, [125I]-Urotensin II; details: compound at 10 μM, [125I]-Urotensin II; for A11: inhibition of radioligand binding: mouse mUR2 membranes
T9 construct: purchased Perkin Elmer Biosignal
T9 sequence (Q8VIH9 1-385): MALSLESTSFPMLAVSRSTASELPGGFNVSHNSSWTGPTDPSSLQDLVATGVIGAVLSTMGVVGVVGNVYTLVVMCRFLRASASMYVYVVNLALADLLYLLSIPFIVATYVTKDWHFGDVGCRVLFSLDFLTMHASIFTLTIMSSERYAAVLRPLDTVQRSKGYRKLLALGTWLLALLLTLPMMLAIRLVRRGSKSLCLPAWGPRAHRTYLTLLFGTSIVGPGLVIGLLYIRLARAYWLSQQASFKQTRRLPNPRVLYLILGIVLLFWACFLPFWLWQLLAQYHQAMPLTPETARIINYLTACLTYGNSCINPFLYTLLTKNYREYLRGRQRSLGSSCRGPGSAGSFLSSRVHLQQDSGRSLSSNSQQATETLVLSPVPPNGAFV
Procedure, shortened: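 Cloned mouse urotensin (mUR2) receptor membranes from Perkin Elmer Biosignal were immobilized in FlashPlate microplates using a proprietary coating. Each well got 19.5 μl buffer, then 0.5 μl of DMSO, reference ligand, or compound. Adding 5 μl of [125I]-Urotensin II, diluted to 5× final concentration in binding buffer, started binding. Plates were sealed with TopSeal-A and incubated 1 hour at room temperature in the dark. Wells were counted for 30 seconds each on a TopCount after a 60-second delay, and percentage inhibition was calculated.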

Human μ-opioid (MOP) = biological target: T10, Human μ-opioid (MOP) (Homo sapiens, UniProt P35372); experiment: Radioligand binding, human μ-opioid (MOP) membranes, FlashPlate, [3H]-Naloxone; details: compound at 10 μM, [3H]-Naloxone; for A7: inhibition of radioligand binding: human MOP membranes
T10 construct: purchased Perkin Elmer Biosignal
Procedure, shortened: as §1

Human δ-opioid (DOP) = biological target: T11, Human δ-opioid (DOP) (Homo sapiens, UniProt P41143); experiment: Radioligand binding, human δ-opioid (DOP) membranes, FlashPlate, [3H]-Bremazocine; details: compound at 10 μM, [3H]-Bremazocine; for A1: inhibition of radioligand binding: human DOP membranes
T11 construct: purchased Perkin Elmer Biosignal
Procedure, shortened: as §1

T6 sequence (P33032 whole entry): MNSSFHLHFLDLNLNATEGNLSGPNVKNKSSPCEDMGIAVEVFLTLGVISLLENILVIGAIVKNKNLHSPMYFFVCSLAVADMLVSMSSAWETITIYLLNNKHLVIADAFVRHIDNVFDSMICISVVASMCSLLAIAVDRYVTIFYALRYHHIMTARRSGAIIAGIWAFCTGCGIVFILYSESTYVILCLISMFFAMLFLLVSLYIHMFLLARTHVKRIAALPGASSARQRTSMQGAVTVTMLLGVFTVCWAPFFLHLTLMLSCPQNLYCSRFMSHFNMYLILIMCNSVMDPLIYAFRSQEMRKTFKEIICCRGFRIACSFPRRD
T1 sequence (Q99705 whole entry): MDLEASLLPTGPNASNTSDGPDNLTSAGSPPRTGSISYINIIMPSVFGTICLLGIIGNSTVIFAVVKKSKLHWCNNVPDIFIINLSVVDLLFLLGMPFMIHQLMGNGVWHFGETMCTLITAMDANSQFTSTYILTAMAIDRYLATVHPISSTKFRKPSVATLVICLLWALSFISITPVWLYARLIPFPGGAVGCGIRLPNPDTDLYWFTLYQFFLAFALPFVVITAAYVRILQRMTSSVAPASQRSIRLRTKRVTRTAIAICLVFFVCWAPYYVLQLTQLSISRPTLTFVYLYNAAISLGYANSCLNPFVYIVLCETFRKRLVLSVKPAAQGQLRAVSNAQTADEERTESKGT
T5 sequence (P41145 whole entry): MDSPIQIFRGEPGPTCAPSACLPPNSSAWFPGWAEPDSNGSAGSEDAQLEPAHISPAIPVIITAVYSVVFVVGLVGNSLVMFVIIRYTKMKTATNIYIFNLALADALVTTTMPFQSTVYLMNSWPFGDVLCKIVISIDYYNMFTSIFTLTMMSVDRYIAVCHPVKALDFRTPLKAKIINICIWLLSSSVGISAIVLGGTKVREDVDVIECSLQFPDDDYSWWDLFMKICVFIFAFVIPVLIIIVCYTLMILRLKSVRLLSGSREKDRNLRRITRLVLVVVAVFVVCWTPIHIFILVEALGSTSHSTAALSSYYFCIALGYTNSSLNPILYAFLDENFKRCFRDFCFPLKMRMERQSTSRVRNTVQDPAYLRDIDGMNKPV
T3 sequence (P32245 whole entry): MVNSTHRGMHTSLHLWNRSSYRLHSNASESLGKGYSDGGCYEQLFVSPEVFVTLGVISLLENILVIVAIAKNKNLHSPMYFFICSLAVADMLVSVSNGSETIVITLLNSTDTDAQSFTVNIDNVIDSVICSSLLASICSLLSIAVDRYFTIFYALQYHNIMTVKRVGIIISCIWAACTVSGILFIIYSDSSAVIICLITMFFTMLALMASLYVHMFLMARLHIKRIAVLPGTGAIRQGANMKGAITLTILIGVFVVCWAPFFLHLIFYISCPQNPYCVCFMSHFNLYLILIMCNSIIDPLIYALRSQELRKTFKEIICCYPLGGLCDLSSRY
T4 sequence (P41146 whole entry): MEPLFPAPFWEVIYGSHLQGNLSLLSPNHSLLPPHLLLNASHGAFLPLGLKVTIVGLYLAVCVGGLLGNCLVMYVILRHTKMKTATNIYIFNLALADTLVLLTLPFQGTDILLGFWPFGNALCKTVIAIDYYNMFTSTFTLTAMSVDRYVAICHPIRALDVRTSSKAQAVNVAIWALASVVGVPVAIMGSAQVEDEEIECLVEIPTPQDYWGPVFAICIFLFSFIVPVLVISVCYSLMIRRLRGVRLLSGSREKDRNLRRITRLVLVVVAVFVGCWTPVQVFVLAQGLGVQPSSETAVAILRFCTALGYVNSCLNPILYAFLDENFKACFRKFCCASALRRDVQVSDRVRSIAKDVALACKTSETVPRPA
T11 sequence (P41143 whole entry): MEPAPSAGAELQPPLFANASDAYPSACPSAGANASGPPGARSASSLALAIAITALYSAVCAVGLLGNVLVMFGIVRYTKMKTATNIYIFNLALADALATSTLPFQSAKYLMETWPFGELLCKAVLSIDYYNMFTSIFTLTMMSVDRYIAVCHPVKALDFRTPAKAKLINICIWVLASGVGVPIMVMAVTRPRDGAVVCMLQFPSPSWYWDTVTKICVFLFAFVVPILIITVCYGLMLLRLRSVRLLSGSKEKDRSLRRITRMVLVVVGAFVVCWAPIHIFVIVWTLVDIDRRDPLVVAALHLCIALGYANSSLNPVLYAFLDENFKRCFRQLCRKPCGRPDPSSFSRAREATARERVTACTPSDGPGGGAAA
T10 sequence (P35372 whole entry): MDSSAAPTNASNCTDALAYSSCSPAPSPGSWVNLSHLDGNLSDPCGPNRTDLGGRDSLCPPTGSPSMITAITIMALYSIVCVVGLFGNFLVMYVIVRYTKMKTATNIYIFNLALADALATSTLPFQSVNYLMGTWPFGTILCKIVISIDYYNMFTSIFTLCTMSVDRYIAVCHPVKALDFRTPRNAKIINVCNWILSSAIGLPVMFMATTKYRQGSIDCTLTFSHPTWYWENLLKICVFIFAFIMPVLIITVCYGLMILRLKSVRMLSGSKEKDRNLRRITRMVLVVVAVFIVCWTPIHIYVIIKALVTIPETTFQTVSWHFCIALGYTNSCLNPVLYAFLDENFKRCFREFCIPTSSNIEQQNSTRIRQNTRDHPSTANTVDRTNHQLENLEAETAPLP
T2 sequence (P41968 whole entry): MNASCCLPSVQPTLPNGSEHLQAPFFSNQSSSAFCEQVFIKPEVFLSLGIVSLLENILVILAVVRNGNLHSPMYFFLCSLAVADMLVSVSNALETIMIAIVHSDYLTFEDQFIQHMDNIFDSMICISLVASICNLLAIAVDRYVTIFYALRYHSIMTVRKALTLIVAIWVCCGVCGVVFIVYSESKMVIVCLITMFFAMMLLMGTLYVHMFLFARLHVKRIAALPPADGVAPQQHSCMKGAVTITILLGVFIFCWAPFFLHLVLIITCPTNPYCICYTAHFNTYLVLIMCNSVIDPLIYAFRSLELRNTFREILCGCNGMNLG
T7 sequence (P25103 whole entry): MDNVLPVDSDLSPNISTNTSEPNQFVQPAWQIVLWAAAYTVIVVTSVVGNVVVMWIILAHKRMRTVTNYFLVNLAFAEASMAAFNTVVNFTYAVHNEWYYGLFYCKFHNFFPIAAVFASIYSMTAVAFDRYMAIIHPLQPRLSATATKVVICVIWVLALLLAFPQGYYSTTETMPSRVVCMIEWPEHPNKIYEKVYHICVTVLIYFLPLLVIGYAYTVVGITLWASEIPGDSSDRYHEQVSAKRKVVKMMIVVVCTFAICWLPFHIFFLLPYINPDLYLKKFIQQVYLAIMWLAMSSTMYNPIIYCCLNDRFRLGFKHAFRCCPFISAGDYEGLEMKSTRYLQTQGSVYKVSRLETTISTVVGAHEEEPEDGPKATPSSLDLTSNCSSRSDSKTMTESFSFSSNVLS

| Structure (SMILES) | A6: inhibition of radioligand binding [1] | A3: inhibition of radioligand binding (Human Melanocortin (MC3)) | A4: inhibition of radioligand binding (Human Melanocortin (MC4)) | A10: inhibition of radioligand binding (Human opioid (ORL1)) | A2: inhibition of radioligand binding (Human κ-Opioid (KOP)) | A5: inhibition of radioligand binding (Human melanocortin (MC5)) | A8: inhibition of radioligand binding (Human neurokinin (NK1)) | A9: inhibition of radioligand binding [2] | A11: inhibition of radioligand binding (Mouse urotensin (mUR2)) | A7: inhibition of radioligand binding (Human μ-opioid (MOP)) | A1: inhibition of radioligand binding (Human δ-opioid (DOP)) | A6 radioligand binding, percentage inhibition ([1]; [125I]-S36057) | A3 radioligand binding, percentage inhibition (Human Melanocortin (MC3)) | A4 radioligand binding, percentage inhibition (Human Melanocortin (MC4)) | A10 radioligand binding, percentage inhibition (Human opioid (ORL1)) | A2 radioligand binding, percentage inhibition (Human κ-Opioid (KOP)) | A5 radioligand binding, percentage inhibition (Human melanocortin (MC5)) | A8 radioligand binding, percentage inhibition (Human neurokinin (NK1)) | A9 radioligand binding, percentage inhibition [2] | A11 radioligand binding, percentage inhibition (Mouse urotensin (mUR2)) | also measured |
| --- | --- | --- | --- | --- | --- | --- | --- | --- | --- | --- | --- | --- | --- | --- | --- | --- | --- | --- | --- | --- | --- |
| COC[C@H]1OC(OCc2ccc3ccccc3c2)[C@H](NC(=O)CCCNC(=N)N)[C@@H](OCc2ccc(Cl)cc2)[C@@H]1O (stereo partly shown) [compound 341] |  |  |  |  |  |  |  |  |  |  |  |  |  |  |  |  |  |  |  |  | A6: inhibition of radioligand binding, human melanin-concentrating hormone (MCH1) ([1]; [125I]-S36057): + (“+” indicates greater than 50% inhibition at 10 μM); A3: inhibition of radioligand binding, human melanocortin (MC3) (Human Melanocortin (MC3)): − (“−” indicates less than 50% inhibition at 10 μM); A4: inhibition of radioligand binding, human melanocortin (MC4) (Human Melanocortin (MC4)): − (“−” indicates less than 50% inhibition at 10 μM); A10: inhibition of radioligand binding, human opioid (ORL1) (Human opioid (ORL1)): − (“−” indicates less than 50% inhibition at 10 μM); A2: inhibition of radioligand binding, human κ-opioid (KOP) (Human κ-Opioid (KOP)): − (“−” indicates less than 50% inhibition at 10 μM); A5: inhibition of radioligand binding, human melanocortin (MC5) (Human melanocortin (MC5)): − (“−” indicates less than 50% inhibition at 10 μM); A8: inhibition of radioligand binding, human neurokinin (NK1) (Human neurokinin (NK1)): + (“+” indicates greater than 50% inhibition at 10 μM); A9: inhibition of radioligand binding, human neuropeptide Y (NPY-Y1) [2]: − (“−” indicates less than 50% inhibition at 10 μM); A11: inhibition of radioligand binding, mouse urotensin (mUR2) (Mouse urotensin (mUR2)): − (“−” indicates less than 50% inhibition at 10 μM); A7: inhibition of radioligand binding, human μ-opioid (MOP) (Human μ-opioid (MOP)): + (“+” indicates greater than 50% inhibition at 10 μM); A1: inhibition of radioligand binding, human δ-opioid (DOP) (Human δ-opioid (DOP)): − (“−” indicates less than 50% inhibition at 10 μM) |
| NCCC(=O)NC1C(OCc2ccc3ccccc3c2)OC(COCc2ccc(Cl)cc2)C(O)C1OCc1ccc2ccccc2c1 (stereo not shown) [compound 386] | − (“−” indicates less than 50% inhibition at 10 μM) | + (“+” indicates greater than 50% inhibition at 10 μM) | + (“+” indicates greater than 50% inhibition at 10 μM) | − (“−” indicates less than 50% inhibition at 10 μM) | − (“−” indicates less than 50% inhibition at 10 μM) | + (“+” indicates greater than 50% inhibition at 10 μM) | + (“+” indicates greater than 50% inhibition at 10 μM) | − (“−” indicates less than 50% inhibition at 10 μM) | − (“−” indicates less than 50% inhibition at 10 μM) | − (“−” indicates less than 50% inhibition at 10 μM) | − (“−” indicates less than 50% inhibition at 10 μM) |  |  |  |  |  |  |  |  |  |  |
| N=C(N)NCC(=O)NC1C(OCc2ccc(-c3ccccc3)cc2)OC(COCc2ccc(Cl)cc2)C(O)C1OCc1ccc(-c2ccccc2)cc1 (stereo not shown) [compound 407] | + (“+” indicates greater than 50% inhibition at 10 μM) | + (“+” indicates greater than 50% inhibition at 10 μM) | + (“+” indicates greater than 50% inhibition at 10 μM) | + (“+” indicates greater than 50% inhibition at 10 μM) | − (“−” indicates less than 50% inhibition at 10 μM) | + (“+” indicates greater than 50% inhibition at 10 μM) | + (“+” indicates greater than 50% inhibition at 10 μM) | − (“−” indicates less than 50% inhibition at 10 μM) | − (“−” indicates less than 50% inhibition at 10 μM) | − (“−” indicates less than 50% inhibition at 10 μM) | − (“−” indicates less than 50% inhibition at 10 μM) |  |  |  |  |  |  |  |  |  |  |
| COC[C@H]1OC(OCc2cccc(O)c2)[C@H](NC(=O)CCNC(=N)N)[C@@H](OCc2ccc(-c3ccccc3)cc2)[C@@H]1O (stereo partly shown) [compound 142] |  |  |  |  |  |  |  |  |  |  |  | + (“+” indicates greater than 50% inhibition at 10 μM) | − (“−” indicates less than 50% inhibition at 10 μM) | − (“−” indicates less than 50% inhibition at 10 μM) | − (“−” indicates less than 50% inhibition at 10 μM) | − (“−” indicates less than 50% inhibition at 10 μM) | − (“−” indicates less than 50% inhibition at 10 μM) | − (“−” indicates less than 50% inhibition at 10 μM) | − (“−” indicates less than 50% inhibition at 10 μM) | − (“−” indicates less than 50% inhibition at 10 μM) | A7 radioligand binding, percentage inhibition (Human μ-opioid (MOP)): − (“−” indicates less than 50% inhibition at 10 μM); A1 radioligand binding, percentage inhibition (Human δ-opioid (DOP)): − (“−” indicates less than 50% inhibition at 10 μM) |
| CO[C@H]1[C@H](O)[C@@H](COCc2cccc(O)c2)OC(OCCc2ccccc2)[C@@H]1NC(=O)CCCNC(=N)N (stereo partly shown) [compound 161] |  |  |  |  |  |  |  |  |  |  |  | − (“−” indicates less than 50% inhibition at 10 μM) | − (“−” indicates less than 50% inhibition at 10 μM) | − (“−” indicates less than 50% inhibition at 10 μM) | − (“−” indicates less than 50% inhibition at 10 μM) | − (“−” indicates less than 50% inhibition at 10 μM) | − (“−” indicates less than 50% inhibition at 10 μM) | + (“+” indicates greater than 50% inhibition at 10 μM) | − (“−” indicates less than 50% inhibition at 10 μM) | − (“−” indicates less than 50% inhibition at 10 μM) | A7 radioligand binding, percentage inhibition (Human μ-opioid (MOP)): − (“−” indicates less than 50% inhibition at 10 μM); A1 radioligand binding, percentage inhibition (Human δ-opioid (DOP)): − (“−” indicates less than 50% inhibition at 10 μM) |
